Experimental data taken from PMC4908596, “Fusing simulation and experiment: The effect of mutations on the structure and activity of the influenza fusion peptide” (Scientific Reports, 2016).
Ends that are not written are not given here.

Settings: pH 5

Sequence | Kp (lipid/water partition coefficient)
GLFAAIAAFIEGGWTAMIDAWYGS [G4AG8AG16AG20A] | 333
GLFGAIAGFIEAAWTGMIDGWYGS [G12AG13A] | 442
GLFGAIAGFIEGGATGMIDGWYGS [W14A] | 6265
GLFGAIAGFIEGGWTGMIDGWYGS [WT, reference compound] | 10455
